Measured values from patent US12077503B2, “Substituted cyclic amides and their use as herbicides” (FMC CORPORATION, priority 2015, dated 2024).

How the values were obtained:
Format in all cases: in vivo
[1] = test system: velvetleaf (Abutilon theophrasti); experiment: Test G Pre-Emergence Protocol; conditions: Abutilon theophrasti, pre-emergence, 312 h, evaluated after 13 days; for pest or weed control at 15.625 g/ha: 15.625 g ai/ha; for pest or weed control at 15.625 g/ha / pest or weed control at 250 g/ha: read-out: Velvetleaf damage rating (100=total damage to plant; 0=no damage to plant); for pest or weed control at 62.5 g/ha: 62.5 g ai/ha, 100=total damage to plant, 0=no damage to plant, read-out: Velvetleaf damage rating; for pest or weed control at 250 g/ha: 250 g ai/ha
Summary of the method: (§1)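 Pre-emergence spray, 15.625/62.5/250 g/ha, vehicle acetone:water 50:50 + 0.5% Tween 20, applied 1 d after sowing. Glasshouse 24/16° C, 14 h light, 65% RH, watered twice daily. Visual damage rating at 13 d, 0–100 scale.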

[2] = test system: redroot pigweed (Amaranthus retroflexus); experiment: Test G Pre-Emergence Protocol; conditions: Amaranthus retroflexus, pre-emergence, 312 h, evaluated after 13 days; for pest or weed control at 15.625 g/ha: 15.625 g ai/ha; for pest or weed control at 15.625 g/ha / pest or weed control at 250 g/ha: read-out: Pigweed, Redroot damage rating (100=total damage to plant; 0=no damage to plant); for pest or weed control at 62.5 g/ha: 62.5 g ai/ha, 100=total damage to plant, 0=no damage to plant, read-out: Pigweed, Redroot damage rating; for pest or weed control at 250 g/ha: 250 g ai/ha
Summary of the method: as §1

corn (Zea mays) [3] = experiment: Test G Pre-Emergence Protocol; conditions: Zea mays, pre-emergence, 312 h, evaluated after 13 days; for plant injury at 15.625 g/ha: 15.625 g ai/ha; for plant injury at 15.625 g/ha / plant injury at 250 g/ha: read-out: Corn damage rating (100=total damage to plant; 0=no damage to plant); for plant injury at 62.5 g/ha: 62.5 g ai/ha, 100=total damage to plant, 0=no damage to plant, read-out: Corn damage rating; for plant injury at 250 g/ha: 250 g ai/ha
Summary of the method: as §1

[4] = test system: ivy-leaved morning glory (Ipomoea hederacea); experiment: Test G Pre-Emergence Protocol; conditions: Ipomoea, pre-emergence, 312 h, evaluated after 13 days; for pest or weed control at 15.625 g/ha: 15.625 g ai/ha; for pest or weed control at 15.625 g/ha / pest or weed control at 250 g/ha: read-out: Morningglory, Ivy-leaved damage rating (100=total damage to plant; 0=no damage to plant); for pest or weed control at 62.5 g/ha: 62.5 g ai/ha, 100=total damage to plant, 0=no damage to plant, read-out: Morningglory, Ivy-leaved damage rating; for pest or weed control at 250 g/ha: 250 g ai/ha
Summary of the method: as §1

[5] = test system: giant foxtail (Setaria faberi); experiment: Test G Pre-Emergence Protocol; conditions: Setaria faberi, pre-emergence, 312 h, evaluated after 13 days; for pest or weed control at 15.625 g/ha: 15.625 g ai/ha; for pest or weed control at 15.625 g/ha / pest or weed control at 250 g/ha: read-out: Foxtail, Giant damage rating (100=total damage to plant; 0=no damage to plant); for pest or weed control at 62.5 g/ha: 62.5 g ai/ha, 100=total damage to plant, 0=no damage to plant, read-out: Foxtail, Giant damage rating; for pest or weed control at 250 g/ha: 250 g ai/ha
Summary of the method: as §1

[6] = test system: barnyardgrass (Echinochloa crus-galli); experiment: Test G Pre-Emergence Protocol; conditions: Echinochloa crus-galli, pre-emergence, 312 h, evaluated after 13 days; for pest or weed control at 15.625 g/ha: 15.625 g ai/ha; for pest or weed control at 15.625 g/ha / pest or weed control at 250 g/ha: read-out: Barnyardgrass damage rating (100=total damage to plant; 0=no damage to plant); for pest or weed control at 62.5 g/ha: 62.5 g ai/ha, 100=total damage to plant, 0=no damage to plant, read-out: Barnyardgrass damage rating; for pest or weed control at 250 g/ha: 250 g ai/ha
Summary of the method: as §1

[7] = test system: velvetleaf (Abutilon theophrasti); experiment: Test G Post-Emergence Protocol; conditions: Abutilon theophrasti, post-emergence, 312 h, read-out: Velvetleaf damage rating; for pest or weed control at 15.625 g/ha: 15.625 g ai/ha, evaluated after 13 days (100=total damage to plant; 0=no damage to plant); for pest or weed control at 62.5 g/ha: 62.5 g ai/ha; for pest or weed control at 62.5 g/ha / pest or weed control at 250 g/ha: evaluated after 13 days, 100=total damage to plant, 0=no damage to plant; for pest or weed control at 250 g/ha: 250 g ai/ha
Summary of the method: (§2)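 Damage was rated 13 days after treatment from 0 (none) to 100 (plant killed). Compound was applied as a spray at 15.625, 62.5 or 250 g/ha in 50:50 acetone/water containing 0.5% Tween 20, onto 8-day-old potted plants kept in a glasshouse (24/16 °C, 14 h light, 65% humidity).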

[8] = test system: redroot pigweed (Amaranthus retroflexus); experiment: Test G Post-Emergence Protocol; conditions: Amaranthus retroflexus, post-emergence, 312 h, read-out: Pigweed, Redroot damage rating; for pest or weed control at 15.625 g/ha: 15.625 g ai/ha, evaluated after 13 days (100=total damage to plant; 0=no damage to plant); for pest or weed control at 62.5 g/ha: 62.5 g ai/ha; for pest or weed control at 62.5 g/ha / pest or weed control at 250 g/ha: evaluated after 13 days, 100=total damage to plant, 0=no damage to plant; for pest or weed control at 250 g/ha: 250 g ai/ha
Summary of the method: as §2

corn (Zea mays) [9] = experiment: Test G Post-Emergence Protocol; conditions: Zea mays, post-emergence, 312 h, read-out: Corn damage rating; for plant injury at 15.625 g/ha: 15.625 g ai/ha, evaluated after 13 days (100=total damage to plant; 0=no damage to plant); for plant injury at 62.5 g/ha: 62.5 g ai/ha; for plant injury at 62.5 g/ha / plant injury at 250 g/ha: evaluated after 13 days, 100=total damage to plant, 0=no damage to plant; for plant injury at 250 g/ha: 250 g ai/ha
Summary of the method: as §2

[10] = test system: ivy-leaved morning glory (Ipomoea hederacea); experiment: Test G Post-Emergence Protocol; conditions: Ipomoea, post-emergence, 312 h, read-out: Morningglory, Ivy-leaved damage rating; for pest or weed control at 15.625 g/ha: 15.625 g ai/ha, evaluated after 13 days (100=total damage to plant; 0=no damage to plant); for pest or weed control at 62.5 g/ha: 62.5 g ai/ha; for pest or weed control at 62.5 g/ha / pest or weed control at 250 g/ha: evaluated after 13 days, 100=total damage to plant, 0=no damage to plant; for pest or weed control at 250 g/ha: 250 g ai/ha
Summary of the method: as §2

[11] = test system: giant foxtail (Setaria faberi); experiment: Test G Post-Emergence Protocol; conditions: Setaria faberi, post-emergence, 312 h, read-out: Foxtail, Giant damage rating; for pest or weed control at 15.625 g/ha: 15.625 g ai/ha, evaluated after 13 days (100=total damage to plant; 0=no damage to plant); for pest or weed control at 62.5 g/ha: 62.5 g ai/ha; for pest or weed control at 62.5 g/ha / pest or weed control at 250 g/ha: evaluated after 13 days, 100=total damage to plant, 0=no damage to plant; for pest or weed control at 250 g/ha: 250 g ai/ha
Summary of the method: as §2

[12] = test system: barnyardgrass (Echinochloa crus-galli); experiment: Test G Post-Emergence Protocol; conditions: Echinochloa crus-galli, post-emergence, 312 h, read-out: Barnyardgrass damage rating; for pest or weed control at 15.625 g/ha: 15.625 g ai/ha, evaluated after 13 days (100=total damage to plant; 0=no damage to plant); for pest or weed control at 62.5 g/ha: 62.5 g ai/ha; for pest or weed control at 62.5 g/ha / pest or weed control at 250 g/ha: evaluated after 13 days, 100=total damage to plant, 0=no damage to plant; for pest or weed control at 250 g/ha: 250 g ai/ha
Summary of the method: as §2

With `CN1C[C@@H](c2ccc(CF)cc2)[C@H](C(=O)Nc2cccc(F)c2F)C1=O` (racemic) [Compound 1822] the pest or weed control at 15.625 g/ha [1] was 0%, the pest or weed control at 62.5 g/ha [1] was 60% and the pest or weed control at 250 g/ha [1] was 80%. The pest or weed control at 15.625 g/ha [2] was 0%, the pest or weed control at 62.5 g/ha [2] was 60% and the pest or weed control at 250 g/ha [2] was 80%. The plant injury at 15.625 g/ha (corn (Zea mays) [3]) was 0%, the plant injury at 62.5 g/ha (corn (Zea mays) [3]) was 20% and the plant injury at 250 g/ha (corn (Zea mays) [3]) was 70%. The pest or weed control at 15.625 g/ha [4] was 0%, the pest or weed control at 62.5 g/ha [4] was 20% and the pest or weed control at 250 g/ha [4] was 80%. The pest or weed control at 15.625 g/ha [5] was 90%, the pest or weed control at 62.5 g/ha [5] was 90% and the pest or weed control at 250 g/ha [5] was 90%. The pest or weed control at 15.625 g/ha [6] was 70%, the pest or weed control at 62.5 g/ha [6] was 90% and the pest or weed control at 250 g/ha [6] was 90%. For the same compound, the pest or weed control at 15.625 g/ha [7] was 0%, the pest or weed control at 62.5 g/ha [7] was 30% and the pest or weed control at 250 g/ha [7] was 40%. It also gave a pest or weed control at 15.625 g/ha [8] of 0%, a pest or weed control at 62.5 g/ha [8] of 10% and a pest or weed control at 250 g/ha [8] of 30%. The plant injury at 15.625 g/ha (corn (Zea mays) [9]) was 0%, the plant injury at 62.5 g/ha (corn (Zea mays) [9]) was 40% and the plant injury at 250 g/ha (corn (Zea mays) [9]) was 60%. It also gave a pest or weed control at 15.625 g/ha [10] of 20%, a pest or weed control at 62.5 g/ha [10] of 10% and a pest or weed control at 250 g/ha [10] of 30%. The pest or weed control at 15.625 g/ha [11] was 70%, the pest or weed control at 62.5 g/ha [11] was 80% and the pest or weed control at 250 g/ha [11] was 80%. It also gave a pest or weed control at 15.625 g/ha [12] of 70%, a pest or weed control at 62.5 g/ha [12] of 80% and a pest or weed control at 250 g/ha [12] of 80%.
Work on `Cc1nc(Cl)ccc1NC(=O)[C@H]1C(=O)N(C)C[C@@H]1c1ccc(C(F)(F)F)cc1` (racemic) [Compound 1825] yielded a pest or weed control at 15.625 g/ha [1] of 0%, a pest or weed control at 62.5 g/ha [1] of 0% and a pest or weed control at 250 g/ha [1] of 0%. The pest or weed control at 15.625 g/ha [2] was 0%, the pest or weed control at 62.5 g/ha [2] was 0% and the pest or weed control at 250 g/ha [2] was 0%. For the same compound, the plant injury at 15.625 g/ha (corn (Zea mays) [3]) was 0%, the plant injury at 62.5 g/ha (corn (Zea mays) [3]) was 0% and the plant injury at 250 g/ha (corn (Zea mays) [3]) was 0%. It also gave a pest or weed control at 15.625 g/ha [4] of 0%, a pest or weed control at 62.5 g/ha [4] of 0% and a pest or weed control at 250 g/ha [4] of 0%. For the same compound, the pest or weed control at 15.625 g/ha [5] was 0%, the pest or weed control at 62.5 g/ha [5] was 20% and the pest or weed control at 250 g/ha [5] was 70%. For the same compound, the pest or weed control at 15.625 g/ha [6] was 0%, the pest or weed control at 62.5 g/ha [6] was 0% and the pest or weed control at 250 g/ha [6] was 0%. For the same compound, the pest or weed control at 15.625 g/ha [7] was 0%, the pest or weed control at 62.5 g/ha [7] was 0% and the pest or weed control at 250 g/ha [7] was 20%. It also gave a pest or weed control at 15.625 g/ha [8] of 0%, a pest or weed control at 62.5 g/ha [8] of 0% and a pest or weed control at 250 g/ha [8] of 10%. It also gave a plant injury at 15.625 g/ha (corn (Zea mays) [9]) of 0%, a plant injury at 62.5 g/ha (corn (Zea mays) [9]) of 0% and a plant injury at 250 g/ha (corn (Zea mays) [9]) of 10%. The pest or weed control at 15.625 g/ha [10] was 0%, the pest or weed control at 62.5 g/ha [10] was 0% and the pest or weed control at 250 g/ha [10] was 20%. For the same compound, the pest or weed control at 15.625 g/ha [11] was 0%, the pest or weed control at 62.5 g/ha [11] was 0% and the pest or weed control at 250 g/ha [11] was 50%. It also gave a pest or weed control at 15.625 g/ha [12] of 0%, a pest or weed control at 62.5 g/ha [12] of 0% and a pest or weed control at 250 g/ha [12] of 0%.
